Read-outs that look alike come from different tables or passages of the source. Numbered stars: 1 amine (or outer) side, 2 acyl side, 3 side chain; on linkers, the order of the positions; unused ones are H or OH. Square brackets hold non-standard residues; d marks the D form. Peptide text beside a SMILES is read from it. * marks the point of attachment. ξ: configuration not given here. X1 = N=C1NCC(C(O)C(N[*:1])C(=O)[*:2])N1C1OC(CO)C(O)C(O)C1O; ξEnduracididine(βξ-OH,4'ξ) = N=C1NCC(C(O)C(N)C(=O)O)N1; X2 = OCC1OC(OC2C(CO)OC(*)C(O)C2O)C(O)C(O)C1O; ξCha(3ξ-Me) = CC(C1CCCCC1)C(N)C(=O)O
How the values were obtained:
Assay in all cases: in vitro antibacterial evaluation, MIC by broth dilution
Format in all cases: cell-based
Staphylococcus sp. = tested on: Staphylococcus sp.
Outline: (§1)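 Inoculum 5×10^5 CFU/mL; concentrations 64 to 0.06 μg/mL; MIC defined as lowest inhibitory level. Conducted by broth dilution under NCCLS guidelines.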

Enterococcus sp. = tested on: Enterococcus sp.
Outline: as §1

Streptococcus sp. = tested on: Streptococcus sp.
Outline: as §1

Escherichia coli = tested on: Escherichia coli
Outline: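 Broth dilution in Muller-Hinton II medium per NCCLS standard M7-A2, with an inoculum of 5×10^5 CFU/mL and antibiotic tested over 64-0.06 μg/mL. MIC was taken as the lowest concentration inhibiting visible growth.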

CC(C)=Cc1nc2cc(CC3NC(=O)C(C(C)c4ccccc4)NC(=O)CNC(=O)C(CO)NC(=O)C(C(O)C4CNC(=N)N4C4OC(CO)C(O)C(O)C4O)NC(=O)C(C(O)C4CNC(=N)N4)NC3=O)ccc2o1 (stereo not drawn) [Example 40, Cyclo[3-[2-(2-methylprop-1-en-1-yl)-1,3-benzoxazol-5-yl]alanyl-3-(2-iminoimidazolidin-4-yl)seryl-3-(3-hexopyranosyl-2-iminoimidazolidin-4-yl)serylserylglycyl-β-methylphenyl-alanyl]]
32 µg/mL: MIC Coagulase Negative Staphylococcus (GC 4548) (Staphylococcus sp.) | MIC Coagulase Negative Staphylococcus (GC 4551) (Staphylococcus sp.) | MIC Staphylococcus aureus (GC 4544) (Staphylococcus sp.) | MIC Staphylococcus aureus (GC 4545) (Staphylococcus sp.) | MIC Streptococcus pneumoniae (GC 1894) (Streptococcus sp.) | MIC Streptococcus pyogenes (GC 4563) (Streptococcus sp.) | MIC Escherichia coli (ATCC 25922) (Escherichia coli) | MIC Escherichia coli (GC 4559) (Escherichia coli)
64 µg/mL: MIC Staphylococcus aureus (ATCC 29213) (Staphylococcus sp.) | MIC Staphylococcus aureus (GC 1131) (Staphylococcus sp.) | MIC Staphylococcus aureus (GC 3051) (Staphylococcus sp.) | MIC Staphylococcus aureus (GC 3053) (Staphylococcus sp.) | MIC Staphylococcus aureus (GC 4541) (Staphylococcus sp.) | MIC Staphylococcus aureus (GC 4542) (Staphylococcus sp.) | MIC Staphylococcus aureus-SMITH (GC 4543) (Staphylococcus sp.) | MIC Enterococcus avium (GC 4558) (Enterococcus sp.) | MIC Enterococcus faecalis (GC 4553) (Enterococcus sp.) | MIC Enterococcus faecium (GC 2243) (Enterococcus sp.) | MIC Streptococcus agalactiae (GC 4564) (Streptococcus sp.) | MIC Streptococcus pneumoniae (ATCC 6301) (Streptococcus sp.)
16 µg/mL: MIC Coagulase Negative Staphylococcus (GC 4547) (Staphylococcus sp.) | MIC Coagulase Negative Staphylococcus (GC 4549) (Staphylococcus sp.) | MIC Coagulase Negative Staphylococcus (GC 6257) (Staphylococcus sp.) | MIC Staphylococcus haemolyticus (GC 4546) (Staphylococcus sp.) | MIC Enterococcus faecium (GC 4557) (Enterococcus sp.) | MIC Escherichia coli (GC 4560) (Escherichia coli)
128 µg/mL: MIC Enterococcus faecalis (ATCC 29212) (Enterococcus sp.) | MIC Enterococcus faecalis (GC 2242) (Enterococcus sp.) | MIC Enterococcus faecalis (GC 2691) (Enterococcus sp.) | MIC Enterococcus faecalis (GC 6189) (Enterococcus sp.) | MIC Enterococcus faecium (GC 4556) (Enterococcus sp.) | MIC Streptococcus pneumoniae (GC 4565) (Streptococcus sp.)
>128 µg/mL: MIC Enterococcus faecalis (GC 3059) (Enterococcus sp.) | MIC Enterococcus faecalis (GC 4552) (Enterococcus sp.) | MIC Enterococcus faecalis (GC 4554) (Enterococcus sp.)

CC(C1CCCCC1)C1NC(=O)CNC(=O)C(CO)NC(=O)C(C(O)C2CNC(=N)N2C2OC(CO)C(O)C(O)C2O)NC(=O)C(C(O)C2CNC(=N)N2)NC(=O)C(Cc2ccc(OC3OC(CO)C(OC4OC(CO)C(O)C(O)C4O)C(O)C3O)cc2)NC1=O (stereo not drawn) [Example 51, Cyclo[3-cyclohexyl-2-aminobutanoyl-O-(4-O-hexopyranosylhexopyranosyl)tyrosyl-3-(2-iminoimidazolidin-4-yl)seryl-3-(3-hexopyranosyl-2-iminoimidazolidin-4-yl)-serylserylglycyl]] (cyclo(G[ξCha(3ξ-Me)]Y(X2)[ξEnduracididine(βξ-OH,4'ξ)][X1]S); configuration not given here)
64 µg/mL: MIC Staphylococcus aureus (GC 3053) (Staphylococcus sp.; strain GC 3053, broth dilution, 18 hours at 35° C.) | MIC Coagulase Negative Staphylococcus (GC 4551) (Staphylococcus sp.; strain GC 4551, broth dilution, 18 hours at 35° C.) | MIC Enterococcus faecalis (GC 2242) (Enterococcus sp.; strain GC 2242, broth dilution, 18 hours at 35° C.) | MIC Enterococcus avium (GC 4558) (Enterococcus sp.; strain GC 4558, broth dilution, 18 hours at 35° C.) | MIC Escherichia coli (GC 4559) (Escherichia coli; strain GC 4559, broth dilution, 18 hours at 35° C.)
32 µg/mL: MIC Staphylococcus aureus (ATCC 29213) (Staphylococcus sp.; strain ATCC 29213, broth dilution, 18 hours at 35° C.) | MIC Staphylococcus aureus (GC 1131) (Staphylococcus sp.; strain GC 1131, broth dilution, 18 hours at 35° C.) | MIC Staphylococcus aureus (GC 3051) (Staphylococcus sp.; strain GC 3051, broth dilution, 18 hours at 35° C.) | MIC Staphylococcus aureus (GC 4541) (Staphylococcus sp.; strain GC 4541, broth dilution, 18 hours at 35° C.) | MIC Staphylococcus aureus (GC 4542) (Staphylococcus sp.; strain GC 4542, broth dilution, 18 hours at 35° C.) | MIC Staphylococcus aureus-SMITH (GC 4543) (Staphylococcus sp.; strain GC 4543, broth dilution, 18 hours at 35° C.) | MIC Staphylococcus aureus (GC 4544) (Staphylococcus sp.; strain GC 4544, broth dilution, 18 hours at 35° C.) | MIC Staphylococcus aureus (GC 4545) (Staphylococcus sp.; strain GC 4545, broth dilution, 18 hours at 35° C.) | MIC Staphylococcus haemolyticus (GC 4546) (Staphylococcus sp.; strain GC 4546, broth dilution, 18 hours at 35° C.)
>64 µg/mL: MIC Enterococcus faecalis (ATCC 29212) (Enterococcus sp.; strain ATCC 29212, broth dilution, 18 hours at 35° C.) | MIC Enterococcus faecium (GC 2243) (Enterococcus sp.; strain GC 2243, broth dilution, 18 hours at 35° C.) | MIC Enterococcus faecalis (GC 2691) (Enterococcus sp.; strain GC 2691, broth dilution, 18 hours at 35° C.) | MIC Enterococcus faecalis (GC 3059) (Enterococcus sp.; strain GC 3059, broth dilution, 18 hours at 35° C.) | MIC Enterococcus faecalis (GC 4552) (Enterococcus sp.; strain GC 4552, broth dilution, 18 hours at 35° C.) | MIC Enterococcus faecalis (GC 4553) (Enterococcus sp.; strain GC 4553, broth dilution, 18 hours at 35° C.) | MIC Enterococcus faecalis (GC 4554) (Enterococcus sp.; strain GC 4554, broth dilution, 18 hours at 35° C.) | MIC Enterococcus faecium (GC 4556) (Enterococcus sp.; strain GC 4556, broth dilution, 18 hours at 35° C.) | MIC Enterococcus faecalis (GC 6189) (Enterococcus sp.; strain GC 6189, broth dilution, 18 hours at 35° C.) | MIC Escherichia coli (ATCC 25922) (Escherichia coli; strain ATCC 25922, broth dilution, 18 hours at 35° C.)
16 µg/mL: MIC Coagulase Negative Staphylococcus (GC 4547) (Staphylococcus sp.; strain GC 4547, broth dilution, 18 hours at 35° C.) | MIC Coagulase Negative Staphylococcus (GC 4548) (Staphylococcus sp.; strain GC 4548, broth dilution, 18 hours at 35° C.) | MIC Enterococcus faecium (GC 4557) (Enterococcus sp.; strain GC 4557, broth dilution, 18 hours at 35° C.) | MIC Streptococcus agalactiae (GC 4564) (Streptococcus sp.; strain GC 4564, broth dilution, 18 hours at 35° C.)
4 µg/mL: MIC Coagulase Negative Staphylococcus (GC 4549) (Staphylococcus sp.; strain GC 4549, broth dilution, 18 hours at 35° C.) | MIC Streptococcus pneumoniae (GC 1894) (Streptococcus sp.; strain GC 1894, broth dilution, 18 hours at 35° C.)
8 µg/mL: MIC Streptococcus pneumoniae (ATCC 6301) (Streptococcus sp.; strain ATCC 6301, broth dilution, 18 hours at 35° C.) | MIC Streptococcus pyogenes (GC 4563) (Streptococcus sp.; strain GC 4563, broth dilution, 18 hours at 35° C.) | MIC Streptococcus pneumoniae (GC 4565) (Streptococcus sp.; strain GC 4565, broth dilution, 18 hours at 35° C.) | MIC Escherichia coli (GC 4560) (Escherichia coli; strain GC 4560, broth dilution, 18 hours at 35° C.)
